In US4738929A, “Purified culture of streptomyces galanosa” (Warner-Lambert Company, priority 1986, dated 1988):
In brackets after ≈: the same amount, converted by molar mass.

Legend:
[1] = system: Escherichia coli (PD-04863); assay: Microtiter dilution MIC, Escherichia coli (PD-04863); assay type: cell-based; settings: Mueller-Hinton broth, 37° C., 16-24 hours, read-out: Minimal Inhibitory Concentration
Procedure: (§1) The compounds of the present invention and their pharmaceutically acceptable salts are useful as antimicrobial agents. The antimicrobial activity of the representative examples of compounds in accordance with the present invention against five species of gram-negative bacteria, seven species of gram-positive bacteria, four species of yeast, and two species of fungi were determined using the microtiter dilution technique. This method is described by T. B. Conrath, "Handbook of Microtiter Procedures," Dynatech Corp., Cambridge, Mass., USA (1972); and T. L. Gavan et al, "Microdilution Test Procedures," in Manual of Clinical Microbiology, E. H. Lennette, Ed., American Soc. for Microbiol., Washington, D.C., U.S.A. (1980).
(§2) Each agent is suspended in a nonaqueous solvent for several minutes to sterilize the compound or, if the compound is completely soluble in water, the aqueous solution is sterilized by passage through a 0.2-0.45 micrometer membrane filter.
(§3) Each well of a sterile 96-well microdilution tray is filled under aseptic conditions with 0.1 ml of Mueller-Hinton broth (for antibacterial tests), or yeast extract-peptone-dextrose or buffered supplemented yeast nitrogen base (for tests with yeasts or fungi).
(§4) […] of the test compound solution is added to each of the eight wells in the first row of the tray. A microdilutor apparatus is used to simultaneously mix the contents of these wells and to transfer aliquots to each succeeding row of cells to obtain a range of serially diluted solutions. The last row of wells is untreated and serves as a control.
(§5) Each well containing broth and test compound is inoculated with about ten microliters of inoculum of the test microorganism. One well in the last row of wells (which is free of test compound) is not inoculated and is used as a sterility control The trays are sealed and incubated at 37° C. for 16-24 hours (for bacteria) or at 28° C. for 36-48 hours (yeasts or fungi). During incubation, the inoculated medium is shaken at 100-140 rpm to increase contact between the microorganism cells and test compounds.
(§6) After the incubation period, each plate is evaluated by determining the lowest concentration of test compound required to inhibit the growth of the microorganism and recorded as a minimal inhibitory concentration (MIC).

Salmonella typhimurium = assay: Microtiter dilution MIC, Salmonella typhimurium; assay type: cell-based; settings: Salmonella enterica, Mueller-Hinton broth, 37° C., 16-24 hours, read-out: Minimal Inhibitory Concentration
Procedure: as §1, §2, §3, §4, §5, §6

Alcaligenes viscolactis = assay: Microtiter dilution MIC, Alcaligenes viscolactis; assay type: cell-based; settings: Mueller-Hinton broth, 37° C., 16-24 hours, read-out: Minimal Inhibitory Concentration
Procedure: as §1, §2, §3, §4, §5, §6

Branhamella catarrhalis = assay: Microtiter dilution MIC, Branhamella catarrhalis; assay type: cell-based; settings: Moraxella catarrhalis; Mueller-Hinton broth, 37° C., 16-24 hours; read-out: Minimal Inhibitory Concentration
Procedure: as §1, §2, §3, §4, §5, §6

Pseudomonas aeruginosa = assay: Microtiter dilution MIC, Pseudomonas aeruginosa; assay type: cell-based; settings: Mueller-Hinton broth, 37° C., 16-24 hours, read-out: Minimal Inhibitory Concentration
Procedure: as §1, §2, §3, §4, §5, §6

Micrococcus luteus = assay: Microtiter dilution MIC, Micrococcus luteus; assay type: cell-based; settings: Mueller-Hinton broth, 37° C., 16-24 hours, read-out: Minimal Inhibitory Concentration
Procedure: as §1, §2, §3, §4, §5, §6

Staphylococcus aureus = assay: Microtiter dilution MIC, Staphylococcus aureus; assay type: cell-based; settings: Mueller-Hinton broth, 37° C., 16-24 hours, read-out: Minimal Inhibitory Concentration
Procedure: as §1, §2, §3, §4, §5, §6

Streptococcus pyogenes = assay: Microtiter dilution MIC, Streptococcus pyogenes; assay type: cell-based; settings: Mueller-Hinton broth, 37° C., 16-24 hours, read-out: Minimal Inhibitory Concentration
Procedure: as §1, §2, §3, §4, §5, §6

Streptococcus pneumoniae = assay: Microtiter dilution MIC, Streptococcus pneumoniae; assay type: cell-based; settings: Mueller-Hinton broth, 37° C., 16-24 hours, read-out: Minimal Inhibitory Concentration
Procedure: as §1, §2, §3, §4, §5, §6

Streptococcus faecalis = assay: Microtiter dilution MIC, Streptococcus faecalis; assay type: cell-based; settings: Enterococcus faecalis; Mueller-Hinton broth, 37° C., 16-24 hours; read-out: Minimal Inhibitory Concentration
Procedure: as §1, §2, §3, §4, §5, §6

Bacillus cereus = assay: Microtiter dilution MIC, Bacillus cereus; assay type: cell-based; settings: Mueller-Hinton broth, 37° C., 16-24 hours, read-out: Minimal Inhibitory Concentration
Procedure: as §1, §2, §3, §4, §5, §6

Bacillus megaterium = assay: Microtiter dilution MIC, Bacillus megaterium; assay type: cell-based; settings: Priestia megaterium; Mueller-Hinton broth, 37° C., 16-24 hours; read-out: Minimal Inhibitory Concentration
Procedure: as §1, §2, §3, §4, §5, §6

Saccharomyces cerevisiae = assay: Microtiter dilution MIC, Saccharomyces cerevisiae; assay type: cell-based; settings: yeasts or fungi, 28° C., 36-48 hours, read-out: Minimal Inhibitory Concentration
Procedure: as §1, §2, §3, §4, §5, §6

[2] = system: Schizosaccharomyces pombe; assay: Microtiter dilution MIC, Schizosaccharomyces pombe; assay type: cell-based; settings: yeasts or fungi, 28° C., 36-48 hours, read-out: Minimal Inhibitory Concentration
Procedure: as §1, §2, §3, §4, §5, §6

Rhodotorula aurantiaca = assay: Microtiter dilution MIC, Rhodotorula aurantiaca; assay type: cell-based; settings: Buckleyzyma aurantiaca; yeasts or fungi, 28° C., 36-48 hours; read-out: Minimal Inhibitory Concentration
Procedure: as §1, §2, §3, §4, §5, §6

Torulopsis albida = assay: Microtiter dilution MIC, Torulopsis albida; assay type: cell-based; settings: Naganishia albida; yeasts or fungi, 28° C., 36-48 hours; read-out: Minimal Inhibitory Concentration
Procedure: as §1, §2, §3, §4, §5, §6

Mucor paraciticus = assay: Microtiter dilution MIC, Mucor paraciticus; assay type: cell-based; settings: yeasts or fungi, 28° C., 36-48 hours, read-out: Minimal Inhibitory Concentration
Procedure: as §1, §2, §3, §4, §5, §6

Rhizopus japonicus = assay: Microtiter dilution MIC, Rhizopus japonicus; assay type: cell-based; settings: yeasts or fungi, 28° C., 36-48 hours, read-out: Minimal Inhibitory Concentration
Procedure: as §1, §2, §3, §4, §5, §6

[3] = system: L1210 murine leukemia cell line; assay: Cytotoxic activity against L1210 murine leukemia in vitro; assay type: cell-based; settings: Mus musculus, 50% inhibition of growth, duplicate tests
Procedure: The antineoplastic activities of representative compounds of the present invention against the L1210 murine leukemia cell line in vitro were determined using the methods detailed by R. I. Geran et al, "Protocols for Screening Chemical Agents and Natural Products Against Animal Tumors and Other Biological Systems," 3rd Edition, Cancer Chemotherapy Reports, Part 3, Vol. 3, pages 1-87 (1972) which is incorporated herein by reference.
The IC50 values are the concentration of compound required to produce 50% inhibition of growth of the cell line.

P388 leukemia cell line = assay: In vivo antineoplastic activity against transplanted P388 leukemia in mice; settings: Days 1-9
Procedure: The in vivo antineoplastic activity of representative compounds of the present invention against the transplanted P388 leukemia cell line in mice was determined in accordance with the protocol given in Geran et al, cited above. The mice were infected intraperitoneally on Day 0 and then administered the indicated doses of the test compounds on Days 1-9.

Row | Structure (SMILES) | MIC [1] [µg/mL] | MIC (Salmonella typhimurium) [µg/mL] | MIC (Alcaligenes viscolactis) [µg/mL] | MIC (Branhamella catarrhalis) [µg/mL] | MIC (Pseudomonas aeruginosa) [µg/mL] | MIC (Micrococcus luteus) [µg/mL] | MIC (Staphylococcus aureus) [µg/mL] | MIC (Streptococcus pyogenes) [µg/mL] | MIC (Streptococcus pneumoniae) [µg/mL] | MIC (Streptococcus faecalis) [µg/mL] | MIC (Bacillus cereus) [µg/mL] | MIC (Bacillus megaterium) [µg/mL] | MIC (Saccharomyces cerevisiae) [µg/mL] | MIC [2] [µg/mL] | MIC (Rhodotorula aurantiaca) [µg/mL] | MIC (Torulopsis albida) [µg/mL] | MIC (Mucor paraciticus) [µg/mL] | MIC (Rhizopus japonicus) [µg/mL] | IC50 [3] [µg/mL] | % T/C (P388 leukemia cell line; 25 mg/kg/injection) | further results
1 | COC(=O)c1ccc(O)c2nc3c(C=O)c(O)c(C)c(O)c3nc12 [Example 3, 6-formyl-4,7,9-trihydroxy-8-methyl-1-phenazinecarboxylic acid, methyl ester] | > 1000 | 1000 (≈ 3050 µM) | 333 (≈ 1010 µM) | 111 (≈ 338 µM) | > 1000 | 111 (≈ 338 µM) | > 1000 | 111 (≈ 338 µM) | < 0.46 | 1000 (≈ 3050 µM) | 333 (≈ 1010 µM) | 1000 (≈ 3050 µM) | > 1000 | > 1000 | > 1000 | 1000 (≈ 3050 µM) | 1000 (≈ 3050 µM) | > 1000 | 0.17 (≈ 0.518 µM) | Toxic | % T/C (P388 leukemia cell line; 3.12 mg/kg/injection): 119%; % T/C (P388 leukemia cell line; 6.25 mg/kg/injection): 130%; % T/C (P388 leukemia cell line; 12.5 mg/kg/injection): 149%
2 | Cc1c(O)c(C=NCCN(C)C)c2nc3c(O)ccc(C(=O)NCCN(C)C)c3nc2c1O [Example 7, N-[2-(dimethylamino)ethyl]-6-[[[2-(dimethylamino)ethyl]imino]methyl]-4,7,9-trihydroxy-8-methyl-1-phenazinecarboxamide] | 111 (≈ 244 µM) | 333 (≈ 733 µM) | 4.1 (≈ 9.02 µM) | 12.3 (≈ 27.1 µM) | < 1000 | 37 (≈ 81.4 µM) | 333 (≈ 733 µM) | 111 (≈ 244 µM) | 37 (≈ 81.4 µM) | 1000 (≈ 2200 µM) | 111 (≈ 244 µM) | 333 (≈ 733 µM) | 1000 (≈ 2200 µM) | 111 (≈ 244 µM) | 111 (≈ 244 µM) | 1000 (≈ 2200 µM) | 333 (≈ 733 µM) | 333 (≈ 733 µM) | 0.63 (≈ 1.39 µM) | 126% | % T/C (P388 leukemia cell line; 50 mg/kg/injection): 140%; % T/C (P388 leukemia cell line; 100 mg/kg/injection): 152%; % T/C (P388 leukemia cell line; 200 mg/kg/injection): 166%
3 | COC(=O)c1ccc(O)c2nc3c(C=NCCN(C)C)c(O)c(C)c(O)c3nc12 [Example 5, 6-[[[2-(dimethylamino)ethyl]imino]methyl]-4,7,9-trihydroxy-8-methyl-1-phenazinecarboxylic acid, methyl ester] | 12.3 (≈ 30.9 µM) | 12.3 (≈ 30.9 µM) | 4.1 (≈ 10.3 µM) | 1.4 (≈ 3.51 µM) | 111 (≈ 279 µM) | 4.1 (≈ 10.3 µM) | 12.3 (≈ 30.9 µM) | 4.1 (≈ 10.3 µM) | < 0.46 | 12.3 (≈ 30.9 µM) | 1.4 (≈ 3.51 µM) | 4.1 (≈ 10.3 µM) | 111 (≈ 279 µM) | 37 (≈ 92.9 µM) | 111 (≈ 279 µM) | 333 (≈ 836 µM) | 37 (≈ 92.9 µM) | 111 (≈ 279 µM) | 0.17 (≈ 0.427 µM) | – | % T/C (P388 leukemia cell line; 37.5 mg/kg/injection): 104%; % T/C (P388 leukemia cell line; 75 mg/kg/injection): 113%; % T/C (P388 leukemia cell line; 150 mg/kg/injection): 137%
4 | CCN(CC)CCNC(=O)c1ccc(O)c2nc3c(C=O)c(O)c(C)c(O)c3nc12 [Example 16, N-[2-(diethylamino)ethyl]-6-formyl-4,7,9-trihydroxy-8-methyl-1-phenazinecarboxamide] | 37 (≈ 89.7 µM) | 37 (≈ 89.7 µM) | 12.3 (≈ 29.8 µM) | 12.3 (≈ 29.8 µM) | 333 (≈ 807 µM) | 12.3 (≈ 29.8 µM) | 37 (≈ 89.7 µM) | 37 (≈ 89.7 µM) | 37 (≈ 89.7 µM) | 111 (≈ 269 µM) | 12.3 (≈ 29.8 µM) | 37 (≈ 89.7 µM) | 111 (≈ 269 µM) | 37 (≈ 89.7 µM) | 37 (≈ 89.7 µM) | 37 (≈ 89.7 µM) | 111 (≈ 269 µM) | 111 (≈ 269 µM) | 0.33 (≈ 0.8 µM) | – | % T/C (P388 leukemia cell line; 19 mg/kg/injection): 136%; % T/C (P388 leukemia cell line; 37.5 mg/kg/injection): 147%; % T/C (P388 leukemia cell line; 75 mg/kg/injection): 166%; % T/C (P388 leukemia cell line; 150 mg/kg/injection): 213%
